Test results reported in patent US20240252488A1 (KOREA RESEARCH INSTITUTE OF CHEMICAL TECHNOLOGY, priority 2020, published 2024).

Tests used:
FADD−/− Jurkat cells = assay: Necroptosis inhibition assay, TNF-α-induced necroptosis (CellTiter-Glo 2.0); format: cell-based, human; conditions: TNF-α 15 ng/mL; for Necroptosis inhibition assay (Rescue %) 1 μM: compound 1 μM; for Necroptosis inhibition assay (Rescue %) 10 μM: compound 10 μM
Summary of the method: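 Necroptosis was triggered by TNF-α at 15 ng/mL final following 30 minutes of compound exposure (0.1, 1 or 10 μM final). Incubation ran 20 to 24 hours at 37° C under 5% CO2; cell ATP was then quantified by luminescence.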

MLKL [1] = biological target: T1, MLKL (Homo sapiens, UniProt Q8NB16); assay: Measurement of binding affinity with MLKL receptor (competitive binding assay, Kd); design: made in house; host or cells: HEK 293 cell line (T7 phage in E. coli BL21-derived host is also described)
T1 sequence (Q8NB16 1-471): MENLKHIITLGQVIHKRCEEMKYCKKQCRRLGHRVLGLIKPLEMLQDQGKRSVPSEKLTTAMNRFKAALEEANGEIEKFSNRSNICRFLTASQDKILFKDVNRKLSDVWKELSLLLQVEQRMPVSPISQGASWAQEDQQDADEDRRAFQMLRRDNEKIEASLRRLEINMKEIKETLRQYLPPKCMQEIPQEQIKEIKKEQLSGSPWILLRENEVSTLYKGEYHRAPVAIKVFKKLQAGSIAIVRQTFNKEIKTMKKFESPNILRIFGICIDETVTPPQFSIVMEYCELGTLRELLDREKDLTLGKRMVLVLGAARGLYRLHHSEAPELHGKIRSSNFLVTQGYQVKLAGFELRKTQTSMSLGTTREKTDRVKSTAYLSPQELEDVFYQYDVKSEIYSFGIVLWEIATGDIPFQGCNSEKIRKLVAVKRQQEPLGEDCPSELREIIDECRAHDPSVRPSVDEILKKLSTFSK
Summary of the method: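 MLKL was produced in HEK 293 cells and tagged with DNA for detection. Liganded beads were blocked with excess biotin and washed to cut non-specific binding, then compounds (111× DMSO stocks, 0.9% DMSO in assay) competed for binding. Eluate kinase was measured by qPCR for Kd.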

MLKL [2] = biological target: T1, MLKL; assay: MLKL degradation assay in HepG2 cell line (western blot); format: cell-based; design: endogenous in cells; host or cells: HepG2 or HaCaT; conditions: cell line not given; for Degradation assay (Degradation %) 1 μM: compound 1 μM; for Degradation assay (Degradation %) 10 μM: compound 10 μM
Summary of the method: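 After treating HepG2 with test compounds (final 1 μM or 10 μM) for 20-24 h, we lysed cells, equalized protein by BCA and probed MLKL by overnight primary antibody at 4 °C followed by chemiluminescent detection.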

In the case of COc1ccc(C(=O)N2CCC(CCN3CCC(CN4CCC(n5cc(-c6cnc(N)c(C(=O)O[C@@H](C(=O)Nc7ccc(F)cc7)c7ccccc7)n6)cn5)CC4)CC3)CC2)cc1N1CCC(=O)NC1=O [TDH-501, (R)-2-((4-fluorophenyl)amino)-2-oxo-1-phenylethyl 3-amino-6-(1-(1-((1-(2-(1-(3-(2,4-dioxotetrahydropyrimidin-1(2H)-yl)-4-methoxybenzoyl)piperidin-4-yl)ethyl)piperidin-4-yl)methyl)piperidin-4-yl)-1H-pyrazol-4-yl)pyrazine-2-carboxylate], the “Necroptosis inhibition assay (Rescue %) 1 μM” value (FADD−/− Jurkat cells; FADD−/− Jurkat cells) is reported as 92.23%, the “Necroptosis inhibition assay (Rescue %) 10 μM” value (FADD−/− Jurkat cells; FADD−/− Jurkat cells) is reported as 71.17% and the Kd (MLKL [1]) is reported as 0.95 nM. The “Degradation assay (Degradation %) 1 μM” value (MLKL [2]) was 93.47% and the “Degradation assay (Degradation %) 10 μM” value (MLKL [2]) was 96.40%.

For Nc1ncc(-c2cnn(C3CCN(C(=O)CCC4CCN(C(=O)CCc5cccc6c5C(=O)N(C5CCC(=O)NC5=O)C6=O)CC4)CC3)c2)nc1C(=O)O[C@@H](C(=O)Nc1ccc(F)cc1)c1ccccc1 (stereo partly drawn) [TDH-431, (R)-2-((4-fluorophenyl)amino)-2-oxo-1-phenylethyl 3-amino-6-(1-(1-(3-(1-(3-(2-(2,6-dioxopiperidin-3-yl)-1,3-dioxoisoindolin-4-yl)propanoyl)piperidin-4-yl)propanoyl)piperidin-4-yl)-1H-pyrazol-4-yl)pyrazine-2-carboxylate], the “Necroptosis inhibition assay (Rescue %) 1 μM” value (FADD−/− Jurkat cells; FADD−/− Jurkat cells) was 37.24%, the “Necroptosis inhibition assay (Rescue %) 10 μM” value (FADD−/− Jurkat cells; FADD−/− Jurkat cells) was 17.64% and the Kd (MLKL [1]) was 1 nM. For the same compound, the “Degradation assay (Degradation %) 1 μM” value (MLKL [2]) was 86.88% and the “Degradation assay (Degradation %) 10 μM” value (MLKL [2]) was 76.78%.

With Nc1ncc(-c2cnn(C3CCN(CCOCCNC(=O)CNc4cccc5c4C(=O)N(C4CCC(=O)NC4=O)C5=O)CC3)c2)nc1C(=O)O[C@@H](C(=O)Nc1ccc(F)cc1)c1ccccc1 (stereo partly drawn) [TDH-096, (R)-2-((4-fluorophenyl)amino)-2-oxo-1-phenylethyl 3-amino-6-(1-(1-(2-(2-(2-((2-(2,6-dioxopiperidin-3-yl)-1,3-dioxoisoindolin-4-yl)amino)acetamido)ethoxy)ethyl)piperidin-4-yl)-1H-pyrazol-4-yl)pyrazine-2-carboxylate] the “Necroptosis inhibition assay (Rescue %) 1 μM” value (FADD−/− Jurkat cells) was 32.98%, the “Necroptosis inhibition assay (Rescue %) 10 μM” value (FADD−/− Jurkat cells) was 30.53% and the Kd (MLKL [1]) was 4 nM. For the same compound, the “Degradation assay (Degradation %) 1 μM” value (MLKL [2]) was 60.02% and the “Degradation assay (Degradation %) 10 μM” value (MLKL [2]) was 68.41%.

With Nc1ncc(-c2cnn(C3CCN(CCOC4CCN(C(=O)CC5CCN(c6cccc7c6C(=O)N(C6CCC(=O)NC6=O)C7=O)CC5)CC4)CC3)c2)nc1C(=O)O[C@@H](C(=O)Nc1ccc(F)cc1)c1ccccc1 (stereo partly drawn) [TDH-371, (R)-2-((4-fluorophenyl)amino)-2-oxo-1-phenylethyl 3-amino-6-(1-(1-(2-((1-(2-(1-(2-(2,6-dioxopiperidin-3-yl)-1,3-dioxoisoindolin-4-yl)piperidin-4-yl)acetyl)piperidin-4-yl)oxy)ethyl)piperidin-4-yl)-1H-pyrazol-4-yl)pyrazine-2-carboxylate] the “Necroptosis inhibition assay (Rescue %) 1 μM” value (FADD−/− Jurkat cells) was 35.76%, the “Necroptosis inhibition assay (Rescue %) 10 μM” value (FADD−/− Jurkat cells) was 25.74% and the Kd (MLKL [1]) was 3.7 nM. For the same compound, the “Degradation assay (Degradation %) 1 μM” value (MLKL [2]) was 82.38% and the “Degradation assay (Degradation %) 10 μM” value (MLKL [2]) was 83.26%.

Nc1ncc(-c2cnn(C3CCN(CCOC4CCN(C(=O)c5ccc6c(c5)CN(C5CCC(=O)NC5=O)C6=O)CC4)CC3)c2)nc1C(=O)O[C@@H](C(=O)Nc1ccc(F)cc1)c1ccccc1 (stereo partly drawn) [TDH-549, (R)-2-((4-fluorophenyl)amino)-2-oxo-1-phenylethyl 3-amino-6-(1-(1-(2-((1-(2-(2,6-dioxopiperidin-3-yl)-1-oxoisoindoline-5-carbonyl)piperidin-4-yl)oxy)ethyl)piperidin-4-yl)-1H-pyrazol-4-yl)pyrazine-2-carboxylate] was tested, and the “Necroptosis inhibition assay (Rescue %) 1 μM” value (FADD−/− Jurkat cells; FADD−/− Jurkat cells) was 35.84%, the “Necroptosis inhibition assay (Rescue %) 10 μM” value (FADD−/− Jurkat cells; FADD−/− Jurkat cells) was 25.21% and the Kd (MLKL [1]) was 0.64 nM. For the same compound, the “Degradation assay (Degradation %) 1 μM” value (MLKL [2]) was 84.54% and the “Degradation assay (Degradation %) 10 μM” value (MLKL [2]) was 34.92%.

For Nc1ncc(-c2cnn(C3CCN(CCOCCOCCOCCNc4ccc5c(c4)C(=O)N(C4CCC(=O)NC4=O)C5=O)CC3)c2)nc1C(=O)O[C@@H](C(=O)Nc1ccc(F)cc1)c1ccccc1 (stereo partly drawn) [TDH-154, (R)-2-((4-fluorophenyl)amino)-2-oxo-1-phenylethyl 3-amino-6-(1-(1-(2-(2-(2-(2-((2-(2,6-dioxopiperidin-3-yl)-1,3-dioxoisoindolin-5-yl)amino)ethoxy)ethoxy)ethoxy)ethyl)piperidin-4-yl)-1H-pyrazol-4-yl)pyrazine-2-carboxylate], the “Necroptosis inhibition assay (Rescue %) 1 μM” value (FADD−/− Jurkat cells) was 37.01%, the “Necroptosis inhibition assay (Rescue %) 10 μM” value (FADD−/− Jurkat cells) was 23.23% and the Kd (MLKL [1]) was 3.8 nM. For the same compound, the “Degradation assay (Degradation %) 1 μM” value (MLKL [2]) was 25.56% and the “Degradation assay (Degradation %) 10 μM” value (MLKL [2]) was 28.19%.

In the case of Nc1ncc(-c2ccc(N3CCN(CCOCCOCCNC(=O)C4CCN(c5cccc6c5C(=O)N(C5CCC(=O)NC5=O)C6=O)CC4)CC3)nc2)nc1C(=O)OC(C(=O)Nc1ccc(F)cc1)c1ccccc1 (stereo not drawn) [TDH-257, 2-((4-fluorophenyl)amino)-2-oxo-1-phenylethyl 3-amino-6-(6-(4-(2-(2-(2-(1-(2-(2,6-dioxopiperidin-3-yl)-1,3-dioxoisoindolin-4-yl)piperidine-4-carboxamido)ethoxy)ethoxy)ethyl)piperazin-1-yl)pyridin-3-yl)pyrazine-2-carboxylate], the “Necroptosis inhibition assay (Rescue %) 1 μM” value (FADD−/− Jurkat cells) is reported as 24.61%, the “Necroptosis inhibition assay (Rescue %) 10 μM” value (FADD−/− Jurkat cells) is reported as 21.71% and the Kd (MLKL [1]) is reported as 96 nM. For the same compound, the “Degradation assay (Degradation %) 1 μM” value (MLKL [2]) was 7.56% and the “Degradation assay (Degradation %) 10 μM” value (MLKL [2]) was 26.63%.

In the case of Nc1ncc(-c2cnn(C3CCN(CC4CN(C(=O)C5CCN(c6ccc7c(c6)C(=O)N(C6CCC(=O)NC6=O)C7=O)CC5)CCO4)CC3)c2)nc1C(=O)OC(C(=O)Nc1ccc(F)cc1)c1ccccc1 (stereo not drawn) [TDH-305, 2-((4-fluorophenyl)amino)-2-oxo-1-phenylethyl 3-amino-6-(1-(1-((4-(1-(2-(2,6-dioxopiperidin-3-yl)-1,3-dioxoisoindolin-5-yl)piperidine-4-carbonyl)morpholin-2-yl)methyl)piperidin-4-yl)-1H-pyrazol-4-yl)pyrazine-2-carboxylate], the “Necroptosis inhibition assay (Rescue %) 1 μM” value (FADD−/− Jurkat cells) is reported as 66.84%, the “Necroptosis inhibition assay (Rescue %) 10 μM” value (FADD−/− Jurkat cells) is reported as 52.42% and the Kd (MLKL [1]) is reported as 2.8 nM. For the same compound, the “Degradation assay (Degradation %) 1 μM” value (MLKL [2]) was 72.47% and the “Degradation assay (Degradation %) 10 μM” value (MLKL [2]) was 50.39%.

For Nc1ncc(-c2cn(C3CCN(CC4CCN(c5cccc6c5C(=O)N(C5CCC(=O)NC5=O)C6=O)CC4)CC3)nn2)nc1C(=O)OC(C(=O)Nc1ccc(F)cc1)c1ccccc1 (stereo not drawn) [TDH-225, 2-((4-fluorophenyl)amino)-2-oxo-1-phenylethyl 3-amino-6-(1-(1-((1-(2-(2,6-dioxopiperidin-3-yl)-1,3-dioxoisoindolin-4-yl)piperidin-4-yl)methyl)piperidin-4-yl)-1H-1,2,3-triazol-4-yl)pyrazine-2-carboxylate], the “Necroptosis inhibition assay (Rescue %) 1 μM” value (FADD−/− Jurkat cells) was 55.04%, the “Necroptosis inhibition assay (Rescue %) 10 μM” value (FADD−/− Jurkat cells) was 49.01% and the Kd (MLKL [1]) was 8 nM. For the same compound, the “Degradation assay (Degradation %) 1 μM” value (MLKL [2]) was 36.29% and the “Degradation assay (Degradation %) 10 μM” value (MLKL [2]) was 25.24%.
